# Source: publication PMC4503722, “Novel Phenotypic Outcomes Identified for a Public Collection of Approved Drugs from a Publicly Accessible Panel of Assays” (PLoS ONE, 2015)
# Read-outs that look alike come from different tables or passages of the source.
# How the values were obtained:
# [1] = system: endothelial tube formation in co-cultures of ECFCs and ADSCs treated with VEGF; assay: cells; assay type: cell-based, human
# [2] = system: nuclear β-catenin in C2C12 cells; assay: cells; assay type: cell-based
# [3] = system: INS-1E cells; assay: cells; assay type: cell-based, rat
# [4] = system: NCI-H716 cells; assay: cells; assay type: cell-based, Human
# [5] = system: HeLa cells; assay: cells; assay type: cell-based
# [6] = system: DLD-1; assay: cells; assay type: cell-based
# [7] = system: SW480; assay: cells; assay type: cell-based
# [8] = system: HCT116; assay: cells; assay type: cell-based
# [9] = system: HCT116 cells treated with a GSK3β inhibitor; assay: cells; assay type: cell-based
# [10] = biological target: T1, hp70S6K1 (RPS6KB1) (Homo sapiens, UniProt P23443); assay: Cerep LANCE kinase assay hp70S6K1 (S1 assay 31); assay type: biochemical; conditions: read-out: p70S6K1
# T1 construct: purchased Cerep (LANCE kinase assay platform, contract assay)
# [11] = biological target: T2, hKDR (Homo sapiens, UniProt P35968); assay: Cerep LANCE kinase assay hKDR (S1 assay 32); assay type: biochemical
# T2 construct: purchased Cerep (LANCE kinase assay platform, contract assay)
# [12] = biological target: T3, hJAK2 (Homo sapiens, UniProt O60674); assay: Cerep LANCE kinase assay hJAK2 (S1 assay 33); assay type: biochemical; conditions: read-out: JAK2
# T3 construct: purchased Cerep (LANCE kinase assay platform, contract assay)
# [13] = biological target: T4, hGSK3b (Homo sapiens, UniProt P49841); assay: Cerep LANCE kinase assay hGSK3b (S1 assay 34); assay type: biochemical; conditions: read-out: GSK3b
# T4 construct: purchased Cerep (LANCE kinase assay platform, contract assay)
# [14] = biological target: T5, hFLT3 (Homo sapiens, UniProt P36888); assay: Cerep LANCE kinase assay hFLT3 (S1 assay 35); assay type: biochemical; conditions: read-out: FLT3
# T5 construct: purchased Cerep (LANCE kinase assay platform, contract assay)
# [15] = Homo sapiens, HCT-116, read-out: GSK3b inh pretreated_Viability ATP HCT116
# [16] = Homo sapiens, IC50 / EC50; endothelial tube area, ADSC/ECFC co-culture; read-out: Anti-Angiogenesis
# T3 sequence (O60674 whole entry): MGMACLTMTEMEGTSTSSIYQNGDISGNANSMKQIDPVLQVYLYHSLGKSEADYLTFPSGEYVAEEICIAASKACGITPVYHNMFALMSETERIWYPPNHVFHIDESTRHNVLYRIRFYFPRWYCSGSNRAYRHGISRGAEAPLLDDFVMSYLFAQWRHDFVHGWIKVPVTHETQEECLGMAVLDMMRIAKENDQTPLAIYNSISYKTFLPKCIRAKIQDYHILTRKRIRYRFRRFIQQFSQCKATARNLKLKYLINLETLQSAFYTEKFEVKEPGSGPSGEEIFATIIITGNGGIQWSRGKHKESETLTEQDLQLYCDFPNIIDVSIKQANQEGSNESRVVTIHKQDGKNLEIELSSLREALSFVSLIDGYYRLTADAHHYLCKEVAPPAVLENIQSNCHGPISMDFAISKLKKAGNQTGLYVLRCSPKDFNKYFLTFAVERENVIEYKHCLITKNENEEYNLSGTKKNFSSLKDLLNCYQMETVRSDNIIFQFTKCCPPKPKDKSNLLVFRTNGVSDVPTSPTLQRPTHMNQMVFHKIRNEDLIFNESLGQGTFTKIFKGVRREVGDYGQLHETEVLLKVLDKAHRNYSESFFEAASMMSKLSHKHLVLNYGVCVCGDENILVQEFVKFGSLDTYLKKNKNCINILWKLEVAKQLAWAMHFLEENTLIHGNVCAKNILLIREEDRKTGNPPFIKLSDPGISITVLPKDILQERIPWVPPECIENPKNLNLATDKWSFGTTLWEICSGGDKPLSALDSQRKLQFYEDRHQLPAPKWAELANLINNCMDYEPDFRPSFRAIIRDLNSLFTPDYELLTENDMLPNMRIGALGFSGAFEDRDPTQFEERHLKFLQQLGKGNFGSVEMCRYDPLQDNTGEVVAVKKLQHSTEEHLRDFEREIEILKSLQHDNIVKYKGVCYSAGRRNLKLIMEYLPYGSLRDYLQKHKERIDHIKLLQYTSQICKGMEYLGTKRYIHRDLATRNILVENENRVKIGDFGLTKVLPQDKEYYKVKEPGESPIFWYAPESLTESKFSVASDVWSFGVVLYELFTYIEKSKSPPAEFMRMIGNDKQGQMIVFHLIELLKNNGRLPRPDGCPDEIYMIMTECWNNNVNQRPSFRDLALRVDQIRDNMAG
# T5 sequence (P36888 27-993): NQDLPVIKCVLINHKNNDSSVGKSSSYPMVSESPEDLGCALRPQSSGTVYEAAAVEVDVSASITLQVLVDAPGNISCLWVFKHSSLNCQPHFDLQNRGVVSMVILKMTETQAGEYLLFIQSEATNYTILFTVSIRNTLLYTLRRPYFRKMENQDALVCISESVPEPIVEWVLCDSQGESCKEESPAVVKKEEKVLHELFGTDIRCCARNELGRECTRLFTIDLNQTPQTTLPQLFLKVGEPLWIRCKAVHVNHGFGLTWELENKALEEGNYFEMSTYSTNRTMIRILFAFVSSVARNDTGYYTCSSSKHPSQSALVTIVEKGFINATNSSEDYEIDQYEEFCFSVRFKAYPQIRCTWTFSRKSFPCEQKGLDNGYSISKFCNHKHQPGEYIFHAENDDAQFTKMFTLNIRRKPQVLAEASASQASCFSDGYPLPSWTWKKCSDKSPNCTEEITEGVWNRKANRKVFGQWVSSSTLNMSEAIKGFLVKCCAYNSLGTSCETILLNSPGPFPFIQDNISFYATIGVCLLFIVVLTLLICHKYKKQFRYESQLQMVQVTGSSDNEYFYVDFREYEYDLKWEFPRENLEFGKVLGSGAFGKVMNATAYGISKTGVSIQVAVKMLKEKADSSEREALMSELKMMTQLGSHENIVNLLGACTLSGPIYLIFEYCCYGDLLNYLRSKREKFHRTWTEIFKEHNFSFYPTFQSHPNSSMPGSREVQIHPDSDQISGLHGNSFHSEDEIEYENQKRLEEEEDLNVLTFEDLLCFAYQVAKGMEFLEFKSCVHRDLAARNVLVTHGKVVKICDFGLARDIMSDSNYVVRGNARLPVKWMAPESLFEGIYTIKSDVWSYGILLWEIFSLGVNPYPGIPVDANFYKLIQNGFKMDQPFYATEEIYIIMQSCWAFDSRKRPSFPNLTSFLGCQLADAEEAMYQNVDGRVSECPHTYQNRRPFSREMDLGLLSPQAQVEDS
# T1 sequence (P23443 whole entry): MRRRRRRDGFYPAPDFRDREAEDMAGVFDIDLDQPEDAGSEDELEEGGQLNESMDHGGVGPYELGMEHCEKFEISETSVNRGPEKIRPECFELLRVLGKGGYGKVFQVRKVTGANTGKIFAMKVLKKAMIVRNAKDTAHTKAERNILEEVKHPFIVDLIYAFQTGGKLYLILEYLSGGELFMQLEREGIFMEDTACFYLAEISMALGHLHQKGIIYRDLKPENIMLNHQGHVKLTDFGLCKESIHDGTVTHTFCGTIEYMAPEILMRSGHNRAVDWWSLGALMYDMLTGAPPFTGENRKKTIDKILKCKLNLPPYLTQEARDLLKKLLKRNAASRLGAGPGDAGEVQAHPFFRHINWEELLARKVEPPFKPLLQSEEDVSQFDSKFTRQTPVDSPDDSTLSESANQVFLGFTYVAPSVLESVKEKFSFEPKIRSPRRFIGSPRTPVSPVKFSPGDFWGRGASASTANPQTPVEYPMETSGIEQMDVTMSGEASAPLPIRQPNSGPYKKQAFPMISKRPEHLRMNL
# T2 sequence (P35968 20-1356): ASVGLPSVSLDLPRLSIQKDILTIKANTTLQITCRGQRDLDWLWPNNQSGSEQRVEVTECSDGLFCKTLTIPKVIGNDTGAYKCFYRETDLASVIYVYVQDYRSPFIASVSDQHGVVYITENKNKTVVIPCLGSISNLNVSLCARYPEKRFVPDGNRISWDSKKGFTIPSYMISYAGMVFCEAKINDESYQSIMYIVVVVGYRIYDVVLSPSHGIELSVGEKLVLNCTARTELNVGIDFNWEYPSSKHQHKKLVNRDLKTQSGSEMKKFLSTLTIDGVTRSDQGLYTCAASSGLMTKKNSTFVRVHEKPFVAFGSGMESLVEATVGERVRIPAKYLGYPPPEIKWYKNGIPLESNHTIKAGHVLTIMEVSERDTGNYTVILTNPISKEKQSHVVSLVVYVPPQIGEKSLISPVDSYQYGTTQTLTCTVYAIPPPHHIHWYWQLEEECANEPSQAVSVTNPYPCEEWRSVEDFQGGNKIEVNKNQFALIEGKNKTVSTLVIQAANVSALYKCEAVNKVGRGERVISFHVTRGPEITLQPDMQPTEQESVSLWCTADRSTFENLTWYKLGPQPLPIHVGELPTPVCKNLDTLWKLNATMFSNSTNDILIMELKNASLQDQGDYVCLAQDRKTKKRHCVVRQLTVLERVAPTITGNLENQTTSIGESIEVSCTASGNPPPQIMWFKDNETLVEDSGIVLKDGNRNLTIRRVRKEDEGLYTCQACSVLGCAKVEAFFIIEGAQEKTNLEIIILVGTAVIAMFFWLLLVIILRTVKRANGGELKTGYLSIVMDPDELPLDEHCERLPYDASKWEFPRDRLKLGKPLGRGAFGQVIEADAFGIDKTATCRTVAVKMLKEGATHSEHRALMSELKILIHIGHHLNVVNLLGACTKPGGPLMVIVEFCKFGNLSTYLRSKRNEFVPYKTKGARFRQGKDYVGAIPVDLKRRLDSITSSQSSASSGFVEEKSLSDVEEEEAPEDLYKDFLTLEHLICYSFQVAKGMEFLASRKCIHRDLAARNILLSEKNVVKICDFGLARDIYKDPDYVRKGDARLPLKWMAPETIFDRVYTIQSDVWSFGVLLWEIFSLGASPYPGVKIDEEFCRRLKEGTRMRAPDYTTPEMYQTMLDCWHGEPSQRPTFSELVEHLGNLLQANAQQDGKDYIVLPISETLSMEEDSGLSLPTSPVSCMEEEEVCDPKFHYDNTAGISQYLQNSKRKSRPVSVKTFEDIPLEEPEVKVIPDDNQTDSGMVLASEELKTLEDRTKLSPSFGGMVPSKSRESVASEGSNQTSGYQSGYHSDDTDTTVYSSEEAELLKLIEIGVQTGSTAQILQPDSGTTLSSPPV
# T4 sequence (P49841 whole entry): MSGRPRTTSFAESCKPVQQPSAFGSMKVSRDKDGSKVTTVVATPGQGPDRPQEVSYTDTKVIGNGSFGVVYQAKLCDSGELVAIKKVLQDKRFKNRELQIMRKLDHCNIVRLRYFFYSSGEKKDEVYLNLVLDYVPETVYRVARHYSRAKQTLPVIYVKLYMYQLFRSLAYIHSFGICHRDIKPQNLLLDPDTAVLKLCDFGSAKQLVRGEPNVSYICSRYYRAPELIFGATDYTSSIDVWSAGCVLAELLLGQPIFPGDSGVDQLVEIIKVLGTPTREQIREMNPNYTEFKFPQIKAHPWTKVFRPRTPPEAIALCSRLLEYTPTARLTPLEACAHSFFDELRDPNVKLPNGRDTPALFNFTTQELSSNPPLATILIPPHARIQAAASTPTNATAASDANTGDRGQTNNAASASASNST
smiles,measurement,setting,value
COc1cc([C@@H]2c3cc4c(cc3[C@H](O)[C@H]3COC(=O)[C@H]23)OCO4)cc(OC)c1OC [Podofilox],IC50,[1]; Homo sapiens; read-out: Anti-Angiogenesis,8.1 nM
same,EC50,"[2]; Mus musculus, C2C12; read-out: Wnt Pathway",9.1 nM
same,EC50,"[3]; Rattus norvegicus, INS-1E; read-out: Insulin Secretion",> 10 µM
same,EC50,"[4]; Homo sapiens, NCI-H716; read-out: GLP 1 Secretion",> 10 µM
same,EC50,[5]; Homo sapiens; S2 Table; HeLa; 20 = no response at highest concentration; read-out: CellCycle G2/M,7.7 nM
same,IC50,[6]; Homo sapiens; basal; DLD-1; read-out: Basal_Viability ATP DLD-1,182 nM
same,IC50,[7]; Homo sapiens; basal; SW480; read-out: Basal_Viability ATP SW480,207 nM
same,IC50,"[8]; Homo sapiens, HCT-116, basal; HCT116; read-out: Basal_Viability ATP HCT116",184 nM
same,IC50,"[9]; Homo sapiens, HCT-116, HCT116 pretreated with GSK3b inhibitor, read-out: GSK3b inh pretreated_Viability ATP HCT116",66.7 nM
same,IC50,[10]; kinase assay,> 20 µM
same,IC50,"[11]; kinase assay, read-out: KDR",> 20 µM
same,IC50,[12]; kinase assay,> 20 µM
same,IC50,[13]; kinase assay,> 20 µM
same,IC50,[14]; kinase assay,> 20 µM
COC(=O)Nc1nc2ccc(C(=O)c3ccccc3)cc2[nH]1 [Mebendazole],IC50,"[1]; Homo sapiens, read-out: Anti-Angiogenesis",370 nM
same,EC50,"[2]; Mus musculus, C2C12, read-out: Wnt Pathway",245 nM
same,EC50,"[3]; Rattus norvegicus, INS-1E, read-out: Insulin Secretion",> 10 µM
same,EC50,"[4]; Homo sapiens, NCI-H716, read-out: GLP 1 Secretion",> 10 µM
same,EC50,"[5]; Homo sapiens, HeLa, read-out: CellCycle G2/M",80 nM
same,IC50,"[6]; Homo sapiens, DLD-1, read-out: Basal_Viability ATP DLD-1",10100 nM
same,IC50,"[7]; Homo sapiens, SW480, read-out: Basal_Viability ATP SW480",> 20000 nM
same,IC50,"[8]; Homo sapiens, HCT-116, read-out: Basal_Viability ATP HCT116",8260 nM
same,IC50,[9]; [15],> 20000 nM
same,IC50,[10]; kinase assay,> 20 µM
same,IC50,[11],1.43 µM
same,IC50,[12]; kinase assay,> 20 µM
same,IC50,[13]; kinase assay,> 20 µM
same,IC50,[14]; kinase assay,> 20 µM
COC(=O)c1nc(Cl)c(Cl)nc1N,IC50,[1]; read-out: Anti-Angiogenesis,865 nM
same,EC50,[2]; read-out: Wnt Pathway,156 nM
same,EC50,[3]; S2 Table; module primary assay; 20 / 20.1 codes per legend; read-out: Insulin Secretion,> 10 µM
same,EC50,[4]; S2 Table; module primary assay; 20 / 20.1 codes per legend; read-out: GLP 1 Secretion,> 10 µM
same,EC50,[5]; S2 Table; HeLa; 20 = no response at highest concentration; read-out: CellCycle G2/M,511 nM
same,IC50,[6]; basal; DLD-1; read-out: Basal_Viability ATP DLD-1,835 nM
same,IC50,[7]; basal; SW480; read-out: Basal_Viability ATP SW480,880 nM
same,IC50,[8]; basal; HCT116; read-out: Basal_Viability ATP HCT116,327 nM
same,IC50,"[9]; HCT116 pretreated with GSK3b inhibitor, read-out: GSK3b inh pretreated_Viability ATP HCT116",296 nM
same,IC50,[10]; kinase assay,> 20 µM
same,IC50,"[11]; kinase assay, read-out: KDR",> 20 µM
same,IC50,[12]; kinase assay,> 20 µM
same,IC50,[13]; kinase assay,> 20 µM
same,IC50,[14]; kinase assay,2.86 µM
"C=C(C)[C@H]1Cc2c(ccc3c2O[C@@H]2COc4cc(OC)c(OC)cc4[C@@H]2C3=O)O1 [rotenone, reference compound]",IC50,[1]; [16],25.7 nM
same,IC50,[1]; Homo sapiens; read-out: Anti-Angio IC50,26 nM
same,EC50,"[2]; Mus musculus, C2C12; read-out: Wnt pot. EC50",250 nM
same,EC50,[2]; Mus musculus; IC50 / EC50; C2C12 beta-catenin translocation; read-out: Wnt Pathway,254 nM
same,EC50,"[3]; Rattus norvegicus, INS-1E; read-out: Ins. sec. EC50",> 10 µM
same,EC50,"[4]; Homo sapiens, NCI-H716; read-out: GLP1 sec. EC50",> 10 µM
same,G2/M IC50 / EC50,[5],0.31 µM
same,EC50,[5]; Homo sapiens; IC50 / EC50; HeLa; read-out: CellCycle G2/M,311 nM
same,IC50,"[6]; Homo sapiens, DLD-1; Table 2; 72 h, Cell TiterGlo, non-adherent; 20 coded; read-out: DLD-1 viab. IC50",350 nM
same,IC50,"[6]; Homo sapiens, DLD-1; read-out: Basal_Viability ATP DLD-1",350 nM
same,IC50,"[7]; Homo sapiens, SW480; Table 2; 72 h, Cell TiterGlo, non-adherent; 20 coded; read-out: SW480 viab. IC50",160 nM
same,IC50,"[7]; Homo sapiens, SW480; read-out: Basal_Viability ATP SW480",162 nM
same,IC50,"[8]; Homo sapiens, HCT-116, read-out: HCT-116 viab. IC50; Table 2; basal; 72 h, Cell TiterGlo, non-adherent; 20 coded",1200 nM
same,IC50,"[8]; Homo sapiens, HCT-116; read-out: Basal_Viability ATP HCT116",1180 nM
same,IC50,"[9]; Homo sapiens, HCT-116, read-out: HCT-116 (GSK3β) viab. IC50, Table 2, GSK3β inhibitor LY2090314 20 nM, 72 h, Cell TiterGlo, 20 coded",67 nM
same,IC50,"[9]; Homo sapiens, HCT-116, GSK3b inhibitor pretreated, read-out: GSK3b inh pretreated_Viability ATP HCT116",66.7 nM
same,IC50,[10],> 20 µM
same,IC50,[11]; read-out: KDR,> 20 µM
same,IC50,[12],> 20 µM
same,IC50,[13],> 20 µM
same,IC50,[14],> 20 µM
CCCCC1C(=O)N(c2ccccc2)N(c2ccc(O)cc2)C1=O (centres unmarked) [Oxyphenbutazone],IC50,[1]; [16],3290 nM
same,EC50,"[2]; Mus musculus, C2C12, IC50 / EC50; C2C12 beta-catenin translocation; read-out: Wnt Pathway",4920 nM
same,EC50,[3]; Rattus norvegicus; IC50 / EC50; INS-1E; read-out: Insulin Secretion,> 10 µM
same,EC50,[4]; Homo sapiens; IC50 / EC50; NCI-H716; read-out: GLP 1 Secretion,> 10 µM
same,EC50,"[5]; Homo sapiens, HeLa, IC50 / EC50; HeLa; read-out: CellCycle G2/M",> 10000 nM
same,IC50,"[6]; Homo sapiens, DLD-1, basal; read-out: Basal_Viability ATP DLD-1",5870 nM
same,IC50,"[7]; Homo sapiens, SW480, basal; read-out: Basal_Viability ATP SW480",3010 nM
same,IC50,"[8]; Homo sapiens, HCT-116, basal; read-out: Basal_Viability ATP HCT116",15700 nM
same,IC50,[9]; [15],> 20000 nM
same,IC50,[10],> 20 µM
same,IC50,[11]; read-out: KDR,> 20 µM
same,IC50,[12],> 20 µM
same,IC50,[13],> 20 µM
same,IC50,[14],> 20 µM
